Source: US10570121B2, “Substituted dihydroisoquinolinone compounds” (priority 2014, dated 2020)
Where two headings read alike, the source gives them in different places.

How the values were obtained:
Type in all cases: biochemical
WT EZH2 [1] = target: T1, WT EZH2 (Homo sapiens (Human), UniProt Q15910); assay: WT EZH2 nucleosome assay; conditions: PRC2 4-protein complex 4 nM, 1.5 μM SAM, HeLa oligonucleosomes
Experimental: The genes for EZH2, EED, SUZ12, and RBBP4 proteins were cloned into pBacPAK9 vectors (Clontech). RBBP4 was FLAG tagged on the N-terminal end. The baculovirus expressions of these proteins were used to co-infect SF9 insect cells. Insect cell pellets were lysed in a buffer containing 25 mM Tris pH8.0, 300 mM NaCl, 0.5 mM TCEP, complete EDTA-free protease inhibitor (Roche), 0.1% NP-40. The supernatant from the lysate was incubated with FLAG® M2 antibody resin (Sigma). The resin was washed on the chromatography column and eluted with 0.2 mg/ml FLAG peptide. The elute was incubated with omnicleave nucleases (Epicentre Technologies) at 4° C. overnight, then concentrated and loaded onto a Superdex 200 (GE Healthcare) column. The Superdex 200 column was eluted with 25 mM Tris pH8.0, 150 mM NaCl, 0.5 mM TCEP. Fractions containing the PRC2 complex were pooled.
A. Compound preparation • 1.
B. Reagent preparation • 1. […] Dilute TCA to 20% in DI water
C. Enzyme reaction • 1. […] Some compounds were tested under high SAM conditions.
D. Data analysis • 1. IC50 values were determined by fitting the data to a 4-parameter IC50 equation using proprietary curve fitting software. • 2. For compounds tested under high SAM conditions, Ki^app values were obtained by fitting the dose response curve to a model for competitive inhibition using proprietary curve fitting software. Preparation of HeLa Oligonucleosomes: Reagents • Cell Pellet: 15 L HeLa S3 (Accelgen)+6 L HeLa S3 (in house) • Mnase (Worthington Biochemicals) Equipment • SW-28 Rotor • Dounce Homogenizer/B Pestle Buffers • Lysis: 20 mM Hepes pH 7.5, 0.25M Sucrose, 3 mM MgCl2, 0.5% Nonidet P-40, 0.5 mM TCEP, 1 Roche Protease Tablet • B: 20 mM Hepes pH7.5, 3 mM MgCl2, 0.5 mM EDTA, 0.5 mM TCEP, 1 Roche Protease Tablet • MSB: 20 mM Hepes pH7.5, 0.4 M NaCl, 1 mM EDTA, 5% v/v Glycerol, 0.5 mM TCEP, 0.2 mM PMSF • LSB: 20 mM Hepes pH7.5, 0.1M NaCl, 1 mM EDTA, 0.5 mM TCEP, 0.2 mM PMSF • NG: 20 mM Hepes pH7.5, 1 mM EDTA, 0.4 m NaCl, 0.2 mM PMSF, 0.5 mM TCEP • Storage: 20 mM Hepes pH7.5, 1 mM EDTA, 10% Glycerol, 0.2 mM PMSF, 0.5 mM TCEP Protocol

EZH2 Mutant Y641N = EZH2 Mutant Y641N (Homo sapiens (Human), UniProt Q15910, Y641N); assay: EZH2 Mutant Y641N nucleosome assay; conditions: PRC2 4-protein complex 6 nM, 1.5 μM SAM, HeLa oligonucleosomes
WT EZH2 [2] = target: T1, WT EZH2; assay: WT EZH2 nucleosome assay (10X SAM, high SAM conditions); conditions: 15 uM SAM, Ki app from competitive inhibition fit, read-out: WT EZH2 Nucleosome assay (10X SAM) Ki
[3] = WT EZH2 Nucleosome assay IC50 (μM)
[4] = EZH2 Mutant Y641N Nucleosome assay IC50 (μM)
[5] = read-out: WT EZH2 Nucleosome assay IC50
[6] = read-out: EZH2 Mutant Y641N Nucleosome assay IC50

EZH2 Mutant Y641N, sequence (Q15910 whole entry Y641N, looked up): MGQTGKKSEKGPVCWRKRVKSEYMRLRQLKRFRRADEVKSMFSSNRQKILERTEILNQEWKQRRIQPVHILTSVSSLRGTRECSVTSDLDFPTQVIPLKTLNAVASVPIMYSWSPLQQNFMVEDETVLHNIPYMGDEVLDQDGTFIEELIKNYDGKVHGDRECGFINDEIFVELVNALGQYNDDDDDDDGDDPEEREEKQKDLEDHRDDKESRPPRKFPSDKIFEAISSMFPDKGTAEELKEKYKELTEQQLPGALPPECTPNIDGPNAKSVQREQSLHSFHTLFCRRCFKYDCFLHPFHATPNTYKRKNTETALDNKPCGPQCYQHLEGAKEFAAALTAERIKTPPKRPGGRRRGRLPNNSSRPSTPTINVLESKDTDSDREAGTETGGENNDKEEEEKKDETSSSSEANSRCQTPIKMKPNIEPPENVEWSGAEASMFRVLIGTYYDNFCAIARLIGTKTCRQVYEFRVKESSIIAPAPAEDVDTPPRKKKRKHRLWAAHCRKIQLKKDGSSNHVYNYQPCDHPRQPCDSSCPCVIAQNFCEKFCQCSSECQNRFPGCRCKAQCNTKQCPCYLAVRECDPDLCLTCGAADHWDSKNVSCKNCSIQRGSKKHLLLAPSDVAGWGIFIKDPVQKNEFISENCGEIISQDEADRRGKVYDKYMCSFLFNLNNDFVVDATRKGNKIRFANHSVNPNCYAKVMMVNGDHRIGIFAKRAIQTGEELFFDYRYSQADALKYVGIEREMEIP
EZH2 Mutant Y641N, sequence (O75530 whole entry partner, looked up): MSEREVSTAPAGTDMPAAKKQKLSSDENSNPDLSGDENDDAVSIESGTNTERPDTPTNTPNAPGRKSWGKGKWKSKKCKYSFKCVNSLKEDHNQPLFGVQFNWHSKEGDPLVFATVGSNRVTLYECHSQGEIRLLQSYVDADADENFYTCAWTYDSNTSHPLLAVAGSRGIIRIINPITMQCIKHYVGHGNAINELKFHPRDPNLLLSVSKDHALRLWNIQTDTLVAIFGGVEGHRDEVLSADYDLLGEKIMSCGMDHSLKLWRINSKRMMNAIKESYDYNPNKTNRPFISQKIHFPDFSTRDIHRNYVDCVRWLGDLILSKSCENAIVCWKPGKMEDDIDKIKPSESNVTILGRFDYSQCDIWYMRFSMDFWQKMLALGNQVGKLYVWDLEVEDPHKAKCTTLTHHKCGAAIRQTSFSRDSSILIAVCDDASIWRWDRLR
EZH2 Mutant Y641N, sequence (Q15022 whole entry partner, looked up): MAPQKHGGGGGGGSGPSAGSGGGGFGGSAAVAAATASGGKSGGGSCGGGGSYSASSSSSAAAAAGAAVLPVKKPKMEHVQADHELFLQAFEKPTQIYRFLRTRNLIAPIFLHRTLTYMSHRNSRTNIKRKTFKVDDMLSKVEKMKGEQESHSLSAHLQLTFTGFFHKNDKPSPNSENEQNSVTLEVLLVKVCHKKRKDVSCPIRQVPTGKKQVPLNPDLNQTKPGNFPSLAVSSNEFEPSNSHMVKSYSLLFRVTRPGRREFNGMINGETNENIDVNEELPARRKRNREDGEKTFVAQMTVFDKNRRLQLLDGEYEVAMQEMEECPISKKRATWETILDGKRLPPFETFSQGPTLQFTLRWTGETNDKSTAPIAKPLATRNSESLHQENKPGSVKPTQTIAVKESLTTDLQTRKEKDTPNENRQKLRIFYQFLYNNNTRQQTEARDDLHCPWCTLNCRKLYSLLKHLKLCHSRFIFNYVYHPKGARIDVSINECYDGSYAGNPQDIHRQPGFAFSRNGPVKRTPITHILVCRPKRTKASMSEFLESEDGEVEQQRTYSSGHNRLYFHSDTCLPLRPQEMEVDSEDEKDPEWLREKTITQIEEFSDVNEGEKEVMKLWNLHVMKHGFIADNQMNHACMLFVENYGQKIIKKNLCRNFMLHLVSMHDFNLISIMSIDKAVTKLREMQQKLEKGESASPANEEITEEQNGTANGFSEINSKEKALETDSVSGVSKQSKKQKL
EZH2 Mutant Y641N, sequence (Q09028 whole entry partner, looked up): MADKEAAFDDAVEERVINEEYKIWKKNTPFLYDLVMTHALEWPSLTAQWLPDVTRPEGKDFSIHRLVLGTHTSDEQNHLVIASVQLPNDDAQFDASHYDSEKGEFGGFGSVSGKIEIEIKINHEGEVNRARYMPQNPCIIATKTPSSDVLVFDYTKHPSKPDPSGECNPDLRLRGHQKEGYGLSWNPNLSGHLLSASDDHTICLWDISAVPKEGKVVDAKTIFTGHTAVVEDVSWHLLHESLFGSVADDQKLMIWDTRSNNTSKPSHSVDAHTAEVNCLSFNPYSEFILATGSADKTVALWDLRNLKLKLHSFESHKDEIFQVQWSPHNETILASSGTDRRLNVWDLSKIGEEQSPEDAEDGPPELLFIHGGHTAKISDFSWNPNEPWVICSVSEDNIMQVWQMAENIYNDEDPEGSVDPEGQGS
T1 sequence (Q15910 whole entry, looked up): as the sequence (Q15910 whole entry Y641N, looked up) above, with N641Y counted along it
T1 sequence (O75530 whole entry partner, looked up): as the sequence (O75530 whole entry partner, looked up) above
T1 sequence (Q15022 whole entry partner, looked up): as the sequence (Q15022 whole entry partner, looked up) above
T1 sequence (Q09028 whole entry partner, looked up): as the sequence (Q09028 whole entry partner, looked up) above

IC50 (WT EZH2 [1]; [3]) [µM]	IC50 (EZH2 Mutant Y641N; [4]) [µM]	IC50 (WT EZH2 [1]; [5]) [µM]	SMILES	IC50 (EZH2 Mutant Y641N; [6]) [µM]	Ki (WT EZH2 [2]) [nM]
0.035	0.125	–	Cc1cc(C)c(CN2CCc3c(Cl)cc(C(C)CO)c(Cl)c3C2=O)c(=O)[nH]1 (racemic) [Example 17]	–	–
0.011	0.053	–	CCC(CO)c1cc(Cl)c2c(c1Cl)C(=O)N(Cc1c(C)cc(C)[nH]c1=O)CC2 (racemic) [Example 20]	–	–
–	–	0.015	Cc1cc(C)c(CN2CCc3c(Cl)cc(C(C)CN(C)CCO)c(Cl)c3C2=O)c(=O)[nH]1 (racemic) [Example 21]	0.109	–
–	–	0.004	Cc1cc(C)c(CN2CCc3c(Cl)cc(C(C)C4CCN(C(=O)CO)CC4)c(Cl)c3C2=O)c(=O)[nH]1 (racemic) [Example 24]	0.008	–
0.084	0.693	–	CCC(O)c1cc(Cl)c2c(c1Cl)C(=O)N(Cc1c(C)cc(C)[nH]c1=O)CC2 (racemic) [Example 25]	–	–
0.004	0.006	–	Cc1cc(C)c(CN2CCc3c(Cl)cc(C(CO)C4CCOCC4)c(Cl)c3C2=O)c(=O)[nH]1 (racemic) [Example 31]	–	–
–	–	0.093	Cc1cc(C)c(CN2CCc3c(Cl)cc(C(C)C#N)c(Cl)c3C2=O)c(=O)[nH]1 (racemic) [Example 32]	1.13	–
–	–	0.012	Cc1cc(C)c(CN2CCc3c(Cl)cc(C(C)CCO)c(Cl)c3C2=O)c(=O)[nH]1 (racemic) [Example 33]	0.07	–
0.002	0.004	–	Cc1cc(C)c(CN2CCc3c(Cl)cc([C@H](CO)[C@@H]4CCOC4)c(Cl)c3C2=O)c(=O)[nH]1 (single isomer, unassigned) [Example 2, 5,8-dichloro-2-[(4,6-dimethyl-2-oxo-1,2-dihydropyridin-3-yl)methyl]-7-{(1R*)-2-hydroxy-1-[(3S*)-tetrahydrofuran-3-yl]ethyl}-3,4-dihydroisoquinolin-1(2H)-one]	–	–
0.066	–	–	Cc1cc(C)c(CN2CCc3c(Cl)cc([C@@H](CO)[C@H]4CCOC4)c(Cl)c3C2=O)c(=O)[nH]1 (single isomer, unassigned) [Example 3, 5,8-dichloro-2-[(4,6-dimethyl-2-oxo-1,2-dihydropyridin-3-yl)methyl]-7-{(1S*)-2-hydroxy-1-[(3R*)-tetrahydrofuran-3-yl]ethyl}-3,4-dihydroisoquinolin-1(2H)-one]	–	–
–	–	0.326	COC(CO)c1cc(Cl)c2c(c1Cl)C(=O)N(Cc1c(C)cc(C)[nH]c1=O)CC2 (single isomer, unassigned) [Example 10, 5,8-dichloro-2-[(4,6-dimethyl-2-oxo-1,2-dihydropyridin-3-yl)methyl]-7-(2-hydroxy-1-methoxyethyl)-3,4-dihydroisoquinolin-1(2H)-one]	1.98	–
–	–	0.038	COC(CO)c1cc(Cl)c2c(c1Cl)C(=O)N(Cc1c(C)cc(C)[nH]c1=O)CC2 (single isomer, unassigned) [Example 11, 5,8-dichloro-2-[(4,6-dimethyl-2-oxo-1,2-dihydropyridin-3-yl)methyl]-7-(2-hydroxy-1-methoxyethyl)-3,4-dihydroisoquinolin-1(2H)-one]	0.174	–
0.037	0.3	–	CCC(O)c1cc(Cl)c2c(c1Cl)C(=O)N(Cc1c(C)cc(C)[nH]c1=O)CC2 (single isomer, unassigned) [Example 27]	–	–
0.126	1.89	–	CCC(O)c1cc(Cl)c2c(c1Cl)C(=O)N(Cc1c(C)cc(C)[nH]c1=O)CC2 (single isomer, unassigned) [Example 28]	–	–
0.017	0.107	–	CCC(CO)c1cc(Cl)c2c(c1Cl)C(=O)N(Cc1c(C)cc(C)[nH]c1=O)CC2 (single isomer, unassigned) [Example 29]	–	–
0.004	0.02	–	CCC(CO)c1cc(Cl)c2c(c1Cl)C(=O)N(Cc1c(C)cc(C)[nH]c1=O)CC2 (single isomer, unassigned) [Example 30]	–	–

IC50 (WT EZH2 [1]; [3]) [µM]	IC50 (EZH2 Mutant Y641N; [4]) [µM]	IC50 (WT EZH2 [1]; [5]) [µM]	SMILES	IC50 (EZH2 Mutant Y641N; [6]) [µM]	Ki (WT EZH2 [2]) [nM]
0.002	0.002	–	COC(c1cc(Cl)c2c(c1Cl)C(=O)N(Cc1c(C)cc(C)[nH]c1=O)CC2)C1CCN(C(=O)CO)CC1 (single isomer, unassigned) [Example 35, 5,8-dichloro-2-[(4,6-dimethyl-2-oxo-1,2-dihydropyridin-3-yl)methyl]-7-{[1-(hydroxyacetyl)piperidin-4-yl](methoxy)methyl}-3,4-dihydroisoquinolin-1(2H)-one]	–	–
0.001	0.002	–	Cc1cc(C)c(CN2CCc3c(Cl)cc(C(CO)C4CCOCC4)c(Cl)c3C2=O)c(=O)[nH]1 (single isomer, unassigned) [Example 37]	–	–
0.378	0.74	–	Cc1cc(C)c(CN2CCc3c(Cl)cc(C(CO)C4CCOCC4)c(Cl)c3C2=O)c(=O)[nH]1 (single isomer, unassigned) [Example 38]	–	–
–	–	0.04	Cc1cc(C)c(CN2CCc3c(Cl)cc(C(C)CCO)c(Cl)c3C2=O)c(=O)[nH]1 (single isomer, unassigned) [Example 39]	0.242	–
–	–	0.006	Cc1cc(C)c(CN2CCc3c(Cl)cc(C(C)CCO)c(Cl)c3C2=O)c(=O)[nH]1 (single isomer, unassigned) [Example 40]	0.024	–
–	–	–	COc1cc(C)[nH]c(=O)c1CN1CCc2c(C)cc(C(C)=C3CN(S(C)(=O)=O)C3)c(Cl)c2C1=O [Example 78]	0.04	4
–	–	–	Cc1cc(C)c(CN2CCc3c(Cl)cc(C(F)=C4CN(C(=O)CO)C4)c(Cl)c3C2=O)c(=O)[nH]1 [Example 79]	0.133	17
–	–	–	CC(=C1CCNCC1)c1cc(Cl)c2c(c1Cl)C(=O)N(Cc1c(C)cc(C)[nH]c1=O)CC2 [Example 80]	0.007	1
–	–	–	COc1cc(C)[nH]c(=O)c1CN1CCc2c(Cl)cc([C@H](OC)C3COC3)c(Cl)c2C1=O [Example 81, 5,8-dichloro-2-[(4-methoxy-6-methyl-2-oxo-1,2-dihydropyridin-3-yl)methyl]-7-[(R)-methoxy(oxetan-3-yl)methyl]-3,4-dihydroisoquinolin-1(2H)-one]	0.003	0.2
–	–	–	COc1cc(C)[nH]c(=O)c1CN1CCc2c(Cl)cc([C@@H](OC)C3COC3)c(Cl)c2C1=O [Example 82, 5,8-dichloro-2-[(4-methoxy-6-methyl-2-oxo-1,2-dihydropyridin-3-yl)methyl]-7-[(S)-methoxy(oxetan-3-yl)methyl]-3,4-dihydroisoquinolin-1(2H)-one]	0.131	6
–	–	–	COc1cc(C)[nH]c(=O)c1CN1CCc2c(C)cc([C@H](OC)[C@@H]3CCOC3)c(Cl)c2C1=O [Example 83, 8-chloro-2-[(4-methoxy-6-methyl-2-oxo-1,2-dihydropyridin-3-yl)methyl]-7-{(R)-methoxy[(3R)-tetrahydrofuran-3-yl]methyl}-5-methyl-3,4-dihydroisoquinolin-1(2H)-one]	0.004	0.4
–	–	–	COc1cc(C)[nH]c(=O)c1CN1CCc2c(C)cc([C@@H](OC)[C@H]3CCOC3)c(Cl)c2C1=O [Example 86, 8-chloro-2-[(4-methoxy-6-methyl-2-oxo-1,2-dihydropyridin-3-yl)methyl]-7-{(S)-methoxy[(3S)-tetrahydrofuran-3-yl]methyl}-5-methyl-3,4-dihydroisoquinolin-1(2H)-one]	0.637	61
–	–	–	COC(c1cc(Cl)c2c(c1Cl)C(=O)N(Cc1c(C)cc(C)[nH]c1=O)CC2)C(C)O (stereo not drawn) [Example 102]	0.178	18
–	–	–	COc1cc(C)[nH]c(=O)c1CN1CCc2c(Cl)cc([C@H](CO)[C@H]3CCCO3)c(Cl)c2C1=O [Example 105]	0.013	0.8
–	–	–	COc1cc(C)[nH]c(=O)c1CN1CCc2c(Cl)cc([C@H](CO)[C@@H]3CCCO3)c(Cl)c2C1=O [Example 106]	0.008	0.6
–	–	–	COC(c1cc(Cl)c2c(c1Cl)C(=O)N(Cc1c(C)cc(C)[nH]c1=O)CC2)C1CCN(C(=O)CO)C1 (stereo not drawn) [Example 113]	0.005	0.8
